Laboratory results taken from patent US20090191177A1, “Enantiomerically Pure (-) 2-[1-(7-methyl-2-(morpholin-4-yl)-4-oxo-4H-pyrido[1,2-A]pyrimidin-9-yl)ethylamino]benzoic Acid, Its Use In Medical Therapy, And A Pharmaceutical Composition Comprising It - 026” (priority 2008, published 2009).

Tested on: washed platelets
Assay: Washed Platelet Aggregation (WPA), CD9 antibody-induced
Format: cell-based
Conditions: washed platelets from healthy volunteers, aggregation induced by mouse anti-human CD9 antibody
Experimental: Blood was collected from healthy volunteers by venipuncture using a Venflon needle 1.5*45 mm (17 GA, 1.77 IN). The first 2 ml of blood was discarded prior to collecting aliquotes into tubes containing acid citrate dextrose (ACD). One volume of ACD is required for six volumes of blood.
The anticoagulated blood was centrifuged for 15 min at 240×g to obtain platelet rich plasma (PRP). PRP was transferred to a new tube and centrifuged for 15 min at 2200×g. The supernatant was discarded and the platelet pellet re-suspended to […] in Tyrodes buffer (TB) containing 1 μM hirudin and 0.02 U/mL apyrase. The platelet suspension was left to rest at room temperature for 30 min. Just prior to time for assay, CaCl2 was added to a final concentration of 2 mM. The Compound, or wortmannin, was dissolved in DMSO and added to a 96 well plate prior to the addition of the washed platelet suspension. The platelet suspension was preincubated with inhibitor for 5 min. Light absorption at 650 nm was recorded before and after a 5 min plate shake and referred to as recording 0 (R0) and R1. A mouse anti-human CD9 antibody was added (at a donor specific concentration) to each well prior to next 10 min plate shake and light absorption recording; R2.
A concentration response for CD9 antibody-induced aggregation in the absence or presence of 1 μM wortmannin (complete PI3K inhibition) was performed in each washed platelet suspension prior to testing of the Compound. The CD9 antibody concentration with the largest dependence of PI3K inhibition was chosen for the test.
Light absorbance in wells with TB were subtracted from all readings before percent aggregation was calculated according the formula: [(R1−R2)/R1]×100=% aggregation. Spontaneous aggregation or pro-aggregatory effect of the inhibitor was evaluated by the same formula, [(R0−R1)/R0]×100=% aggregation.

| Compound | IC50 | IC50 (Homo sapiens, Platelet) |
| --- | --- | --- |
| Cc1cc(C(C)Nc2ccccc2C(=O)O)c2nc(N3CCOCC3)cc(=O)n2c1 (single isomer, unassigned; (-)) [Ex. 1, (−) 2-[1-(7-Methyl-2-(morpholin-4-yl)-4-oxo-4H-pyrido[1,2-a]pyrimidin-9-yl)ethylamino]benzoic acid] | 6 nM |  |
| Cc1cc(C(C)Nc2ccccc2C(=O)O)c2nc(N3CCOCC3)cc(=O)n2c1 (single isomer, unassigned; (+)) [Ex. 2, (+) 2-[1-(7-Methyl-2-(morpholin-4-yl)-4-oxo-4H-pyrido[1,2-a]pyrimidin-9-yl)ethylamino]benzoic acid] | 1650 nM |  |
| Cc1cc(C(C)Nc2ccccc2C(=O)O)c2nc(N3CCOCC3)cc(=O)n2c1 (racemic) [WO2004016607, 2-[1-(7-Methyl-2-(morpholin-4-yl)-4-oxo-4H-pyrido[1,2-α]pyrimidin-9-yl)ethylamino]benzoic acid, reference compound] |  | 10 nM |
